Experimental data: US10155259B2 (Merck Sharp & Dohme B.V., priority 2011, dated 2018)

Biological target: T1, human FSH receptor (Homo sapiens, UniProt P23945)
T1 construct: expressed in transfected cells; host or cells: CHO cells, stably transfected; cotransfected with CRE-luciferase reporter
T1 sequence (P23945 18-695): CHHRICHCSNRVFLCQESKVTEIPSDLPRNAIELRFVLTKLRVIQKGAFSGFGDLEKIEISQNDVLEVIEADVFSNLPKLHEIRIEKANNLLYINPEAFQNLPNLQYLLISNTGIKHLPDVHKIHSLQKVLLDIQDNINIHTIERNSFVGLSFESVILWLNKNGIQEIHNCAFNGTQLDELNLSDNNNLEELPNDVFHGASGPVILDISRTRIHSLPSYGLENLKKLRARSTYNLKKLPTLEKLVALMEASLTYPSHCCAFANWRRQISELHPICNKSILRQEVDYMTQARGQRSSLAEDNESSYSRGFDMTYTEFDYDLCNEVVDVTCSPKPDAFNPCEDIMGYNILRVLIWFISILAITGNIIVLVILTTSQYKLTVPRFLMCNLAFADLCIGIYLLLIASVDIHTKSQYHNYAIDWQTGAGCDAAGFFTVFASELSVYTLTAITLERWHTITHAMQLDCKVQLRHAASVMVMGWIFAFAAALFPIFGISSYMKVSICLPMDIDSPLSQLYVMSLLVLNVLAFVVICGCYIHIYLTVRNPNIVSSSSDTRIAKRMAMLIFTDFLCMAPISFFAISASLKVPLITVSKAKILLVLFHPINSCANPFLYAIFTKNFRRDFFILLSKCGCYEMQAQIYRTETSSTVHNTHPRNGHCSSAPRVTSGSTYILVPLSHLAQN
Experiment: Antagonistic activity of compounds at the human FSH receptor expressed in CHO cells (CRE-luciferase reporter)
Type: cell-based
Settings: CHO cells stably transfected with human FSH receptor and CRE/luciferase reporter; together with 49 μM recFSH; 4 hours incubation; 1% DMSO; read-out: IC50 (concentration of test compound causing half-maximal inhibition of the maximally attainable inhibition of the luciferase stimulation)
Outline: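 Stably transfected CHO cells with a CRE-driven firefly luciferase reporter were co-incubated 4 h at 37 °C with compound (0.316 nM–10.0 μM, duplicate) plus […] recFSH (80% maximal stimulation), 1% DMSO final. Luminescence read after lysis; IC50 and efficacy from inhibition of FSH-induced luciferase signal.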

| IC50 [nM] | SMILES |
| --- | --- |
| 100 to 1000 | COc1cc2c(cc1OC)-c1nc(C(=O)N[C@@H](CO)Cc3c[nH]c4ccccc34)c(-c3ccccc3OC)n1CC2 [Example 68, N—((R)-1-hydroxy-3-(1H-indol-3-yl)propan-2-yl)-8,9-dimethoxy-3-(2-methoxyphenyl)-5,6-dihydroimidazo[2,1-a]isoquinoline-2-carboxamide] |
| < 100 | COc1ccccc1-c1c(C(=O)N[C@@H](CO)Cc2c[nH]c3ccccc23)nc2n1CCc1cc(OC)c(OC)nc1-2 [Example 70, N—((R)-1-hydroxy-3-(1H-indol-3-yl)propan-2-yl)-8,9-dimethoxy-3-(2-methoxyphenyl)-5,6-dihydroimidazo[1,2-h][1,7]naphthyridine-2-carboxamide] |
